Results as given in US11298363B2, “Triazolobenzazepines as vasopressin V1a receptor antagonists” (RICHTER GEDEON NYRT., priority 2017, dated 2022).
Where a name gives a salt, the structure may show the parent alone.

Key:
[1] = molecular target: T1, human vasopressin V1a receptor (Homo sapiens, UniProt P37288); assay: Human vasopressin V1a receptor binding assay; conditions: 1321N1 cell membranes, [3H]vasopressin; read-out: Ki (nM) on hV1a cell line
In short: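 Ki values come from IC50 via Cheng-Prusoff (KD from prior Scatchard), averaged over at least two independent runs. Human V1a membranes were incubated with radioligand 60 minutes at 27° C., bound ligand collected by filtration; (Arg^8)-vasopressin at 1.2×10^−6 M defined non-specific binding.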

[2] = molecular target: T1, human vasopressin V1a receptor; assay: Functional assay on human vasopressin V1a receptor expressing cell line (intracellular Ca2+ fluorescence); type: cell-based; conditions: 1321N1 cells, (Arg8)-vasopressin at EC80; read-out: IC50 (nM) on hV1a cell line

T1 sequence (P37288 whole entry): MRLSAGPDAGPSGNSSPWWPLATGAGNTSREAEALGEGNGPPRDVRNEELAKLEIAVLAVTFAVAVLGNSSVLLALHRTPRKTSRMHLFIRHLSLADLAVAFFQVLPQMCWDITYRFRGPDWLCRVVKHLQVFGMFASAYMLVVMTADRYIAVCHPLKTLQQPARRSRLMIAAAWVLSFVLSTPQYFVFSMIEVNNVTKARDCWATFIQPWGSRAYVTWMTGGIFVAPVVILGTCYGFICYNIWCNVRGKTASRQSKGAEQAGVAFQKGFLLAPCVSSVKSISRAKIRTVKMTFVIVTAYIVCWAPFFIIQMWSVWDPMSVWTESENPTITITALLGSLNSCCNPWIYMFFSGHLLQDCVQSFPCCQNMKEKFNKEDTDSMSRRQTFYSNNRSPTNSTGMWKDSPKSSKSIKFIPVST

| SMILES | Ki [1] | IC50 [2] |
| --- | --- | --- |
| Clc1ccc2c(c1)CC1(Cc3nnc([C@H]4CC[C@H](N5CCOCC5)CC4)n3-2)OCCO1 [Example 162, 8′-chloro-1′-[trans-4-(morpholin-4-yl)cyclohexyl]-4′H,6′H-spiro[1,3-dioxolane-2,5′-[1,2,4]triazolo[4,3-a][1]benzazepine]hydrochloride] | 0.5 nM | 2.9 nM |
| CN(C)C1Cc2cc(Cl)ccc2-n2c(nnc2N2CCC3(CC2)OCc2ccccc23)C1 (stereo not drawn) [Example 163] | 1 nM | 6.2 nM |
| Clc1ccc2c(c1)CC1(Cc3nnc(N4CCN(c5ncccc5Cl)CC4)n3-2)OCCO1 [Example 164, 8′-chloro-1-[4-(3-chloropyridin-2-yl)piperazin-1-yl]-4′H,6′H-spiro[1,3-dioxolane-2,5′-[1,2,4]triazolo[4,3-a][1]benzazepine]] | 0.3 nM | 0.9 nM |
| CC(C)(C)CN[C@H]1Cc2cc(Cl)ccc2-n2c(nnc2[C@H]2CC[C@H](Oc3ccccn3)CC2)C1 [Example 165, (5S)-8-chloro-N-(2,2-dimethylpropyl)-1-[trans-4-(pyridin-2-yloxy)cyclohexyl]-5,6-dihydro-4H-[1,2,4]triazolo[4,3-a][1]benzazepin-5-amine] | 1.5 nM | 21 nM |
| COC1Cc2cc(Cl)ccc2-n2c(nnc2[C@H]2CC[C@H](C(=O)N3CCN(C)CC3)CC2)C1 (stereo partly drawn) [Example 166, [Trans-4-(8-chloro-5-methoxy-5,6-dihydro-4H-[1,2,4]triazolo[4,3-a][1]benzazepin-1-yl)cyclohexyl](4-methylpiperazin-1-yl)methanone] | 6.2 nM | 169 nM |
| Clc1ccc2c(c1)C[C@@H](N1CCOCC1)Cc1nnc([C@H]3CC[C@H](Oc4ccccn4)CC3)n1-2 [Example 167, (5R)-8-chloro-5-(morpholin-4-yl)-1-[trans-4-(pyridin-2-yloxy)cyclohexyl]-5,6-dihydro-4H-[1,2,4]triazolo[4,3-a][1]benzazepine] | 0.4 nM | 2.6 nM |
| CC(=O)N[C@@H]1Cc2cc(Cl)ccc2-n2c(nnc2[C@H]2CC[C@H](Oc3ccccn3)CC2)C1 [Example 168, N-{(5R)-8-chloro-1-[trans-4-(pyridin-2-yloxy)cyclohexyl]-5,6-dihydro-4H-[1,2,4]triazolo[4,3-a][1]benzazepin-5-yl}acetamide] | 0.4 nM | 0.8 nM |
| CC(C)(O)C(=O)N[C@@H]1Cc2cc(Cl)ccc2-n2c(nnc2[C@H]2CC[C@H](Oc3ccccn3)CC2)C1 [Example 169, N-{(5R)-8-chloro-1-[trans-4-(pyridin-2-yloxy)cyclohexyl]-5,6-dihydro-4H-[1,2,4]triazolo[4,3-a][1]benzazepin-5-yl}-2-hydroxy-2-methylpropanamide] | 0.9 nM | 2.3 nM |
| COC1Cc2cc(Cl)ccc2-n2c(nnc2C2CCN(C3CCOCC3)CC2)C1 (stereo not drawn) [Example 170, 8-chloro-5-methoxy-1-[1-(tetrahydro-2H-pyran-4-yl)piperidin-4-yl]-5,6-dihydro-4H-[1,2,4]triazolo[4,3-a][1]benzazepine] | 15.3 nM | 38 nM |
| Clc1ccc2c(c1)CC1(Cc3nnc(N4CCN(c5ccccn5)CC4)n3-2)OCCO1 [Example 171, 8′-chloro-1′-[4-(pyridin-2-yl)piperazin-1-yl]-4′H,6′H-spiro[1,3-dioxolane-2,5′-[1,2,4]triazolo[4,3-a][1]benzazepine]] | 0.6 nM | 1.2 nM |
| OC1Cc2cc(Cl)ccc2-n2c(nnc2N2CCC3(CC2)OCc2ccccc23)C1 (stereo not drawn) [Example 172, 8-chloro-1-(1′H,3H-spiro[2-benzofuran-1,4′-piperidin]-1′-yl)-5,6-dihydro-4H-[1,2,4]triazolo[4,3-a][1]benzazepin-5-ol] | 0.7 nM | 5.6 nM |
| OC1Cc2cc(Cl)ccc2-n2c(nnc2N2CCC(c3ncccc3Cl)CC2)C1 (stereo not drawn) [Example 173, 8-chloro-1-[4-(3-chloropyridin-2-yl)piperidin-1-yl]-5,6-dihydro-4H-[1,2,4]triazolo[4,3-a][1]benzazepin-5-ol] | 1.6 nM | 11 nM |
